For orientation: IC50 means the midpoint of a concentration-inhibition curve. High values mean a need for much substance, low ones inhibition by little substance.

The target in this test is substance P receptor (Homo sapiens, UniProt P25103). The test is described as follows: Radioligand receptor binding inhibitory assay using receptor from human lymphoblast cells (IM-9), 125I-BHSP. To be noted: IM-9 receptor, 25° C., 30 minutes. The procedure: The method of A. Margaret et al. [Molecular Pharmacology 42, 458 (1992)] was modified and used. The receptor was prepared from human lymphoblast cells (IM-9). IM-9 cells were grown in 175 cm^2 tissue culture flasks (100 ml×10) at a density approximately 2×10^5 /ml of RPMI 1640 with L-glutamine, 10% (V/V) heat inactivated fetal calf serum, penicillin (100 u/ml), and streptomycin (100 μg/ml) at 37° C. in 5% CO2 /95% air for 3 days. IM-9 cells were obtained by centrifugation at 500×g for 5 minutes at 5° C. The pellet obtained was washed once with phosphate buffer (Flow Laboratories, CAT No. 28-103-05), homogenized using Polytron homogenizer (Kinematika, Germany) in 30 ml of 50 mM Tris-HCl buffer containing 120 mM NaCl, 5 mM KCl, 2 μg/ml phenylmethyl sulfonyl fluoride, and 1 mM ethylenediamine tetra-acetic acid and then centrifuged at 40,000×g for 20 minutes. The residue was washed twice with 30 ml of buffer described above, and preserved frozen (-80° C.).
Sequence of substance P receptor (P25103 whole entry): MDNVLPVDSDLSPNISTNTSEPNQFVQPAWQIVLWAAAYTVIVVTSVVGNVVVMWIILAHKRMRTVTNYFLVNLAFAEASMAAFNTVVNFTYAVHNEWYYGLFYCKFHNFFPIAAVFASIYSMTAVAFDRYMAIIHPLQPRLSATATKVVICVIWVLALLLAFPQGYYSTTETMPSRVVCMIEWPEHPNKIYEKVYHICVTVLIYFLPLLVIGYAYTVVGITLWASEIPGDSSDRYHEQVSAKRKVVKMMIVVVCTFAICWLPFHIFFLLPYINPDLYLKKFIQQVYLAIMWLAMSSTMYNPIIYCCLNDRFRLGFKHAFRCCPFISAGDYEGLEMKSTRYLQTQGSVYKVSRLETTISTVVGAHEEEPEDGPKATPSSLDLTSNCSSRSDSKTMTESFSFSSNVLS
The above specimen was suspended in a reaction buffer (50 mM Tris-HCl buffer (pH 7.4), 0.02% bovine serum albumin, 1 mM phenylmethylsulfonyl fluoride, 2 μg/ml chymostatin, 40 μg/ml bacitracin, 3 mM manganese chloride) at a protein concentration of 1.5 mg/ml and a 100 μl portion of the suspension was used in the reaction. After addition of the sample and 125I-BHSP (0.46 KBq), the reaction was conducted in 0.2 ml of reaction buffer at 25° C. for 30 minutes. The amount of nonspecific binding was determined by adding substance P at a final concentration of 2×10^-6 M. After the reaction, using a cell harvester (290PHD, Cambridge Technology, Inc., England), rapid filtration was carried out through a glass filter (GF/B, Whatman, U.S.A.) to stop the reaction. After washing three times with 250 μl of 50 mM Tris-HCl buffer (pH 7.4) containing 0.02% bovine serum albumin, the radioactivity remaining on the filter was measured with a gamma counter. Before use, the filter was immersed in 0.1% polyethyleneimine for 24 hours and air-dried.

Counter-ions that a name gives are not always drawn.

As to `Cc1cc2c(-c3ccccc3)c(C(=O)NCc3cc(C(F)(F)F)cc(C(F)(F)F)c3)n(CC(N)=O)c(=O)c2cc1C` [Example 225, N-[3,5-Bis(trifluoromethyl)benzyl]-2-carbamoylmethyl-1,2-dihydro-6,7-dimethyl-1-oxo-4-phenyl-3-isoquinolinecarboxamide], the IC50 stood at 94 nM.
Take `Cc1cc(C)cc(CNC2CCCn3c2c(-c2ccccc2)c2cc(C)c(C)cc2c3=O)c1` (centres unmarked) [Example 233, 1-(3,5-Dimethylbenzylamino)-1,2,3,4-tetrahydro-8,9-dimethyl-6-oxo-11-phenyl-6H-benzo[b]quinolizine hydrochloride]: the concentration for half-maximal inhibition (IC50) was 44 nM.
`COc1ccccc1CNC1CCCn2c1c(-c1ccccc1)c1ccccc1c2=O` (centres unmarked) [Example 239, 1,2,3,4-Tetrahydro-1-(2-methoxybenzylamino)-6-oxo-11-phenyl-6H-benzo[b]quinolizine] displayed an IC50 of 80 nM.
For `O=C1c2c(-c3ccccc3)c3ccccc3c(=O)n2CCN1Cc1cc(C(F)(F)F)cc(C(F)(F)F)c1` [Example 240, N-[3,5-Bis(trifluoromethyl)benzyl]-1,2,3,4-tetrahydro-1,6-dioxo-11-phenyl-6H-pyrazino[1,2-b]isoquinoline], the concentration for half-maximal inhibition (IC50) is 2 nM.
On to `CN(Cc1cc(C(F)(F)F)cc(C(F)(F)F)c1)C(=O)c1oc(=O)c2ccc(Cl)cc2c1-c1ccccc1` [Example 242, N-[3,5-Bis(trifluoromethyl)benzyl]-6-chloro-N-methyl-1-oxo-4-phenyl-1H-2-benzopyran-3-carboxamide], for which the IC50 is 8.6 nM.
Compound `CN(Cc1cc(C(F)(F)F)cc(C(F)(F)F)c1)C(=O)c1oc(=O)c2ccccc2c1-c1ccccc1` [Example 243, N-[3,5-Bis(trifluoromethyl)benzyl]-N-methyl-1-oxo-4-phenyl-1H-2-benzopyran-3-carboxamide] showed an IC50 of 0.9 nM.
As for `COc1ccccc1-c1c(C(=O)N(C)Cc2cc(C(F)(F)F)cc(C(F)(F)F)c2)oc(=O)c2ccccc12` [Example 244, N-[3,5-Bis(trifluoromethyl)benzyl]-4-(2-methoxyphenyl)-N-methyl-1-oxo-1H-2-benzopyran-3-carboxamide], the half-inhibitory concentration (IC50) was found to be 1.6 nM.
As to `O=C(NCc1cc(C(F)(F)F)cc(C(F)(F)F)c1)c1oc(=O)c2ccccc2c1-c1ccc(F)cc1` [Example 245, N-[3,5-Bis(trifluoromethyl)benzyl]-4-(4-fluorophenyl)-1-oxo-1H-2-benzopyran-3-carboxamide], the 50% inhibitory concentration (IC50) came out at 59 nM.
The value for `CN(Cc1cc(C(F)(F)F)cc(C(F)(F)F)c1)C(=O)c1oc(=O)c2ccccc2c1-c1ccc(F)cc1` [Example 246, N-[3,5-Bis(trifluoromethyl)benzyl]-4-(4-fluorophenyl)-N-methyl-1-oxo-1H-2-benzopyran-3-carboxamide] was 0.61 nM.
Next, `Cc1ccc2c(=O)oc(C(=O)N(C)Cc3cc(C(F)(F)F)cc(C(F)(F)F)c3)c(-c3ccccc3)c2c1` [Example 247]: 5.2 nM; `Cc1ccccc1-c1c(C(=O)N(C)Cc2cc(C(F)(F)F)cc(C(F)(F)F)c2)c(=O)oc2ccc(Cl)cc12` [Example 248]: 16 nM; `CN(Cc1cc(C(F)(F)F)cc(C(F)(F)F)c1)C(=O)c1c(-c2ccccc2)c2cc(Cl)ccc2oc1=O` [Example 249, N-[3,5-Bis(trifluoromethyl)benzyl]-6-chloro-N-methyl-2-oxo-4-phenyl-2H-1-benzopyran-3-carboxamide]: 17 nM.
For `CN(Cc1cc(C(F)(F)F)cc(C(F)(F)F)c1)C(=O)c1c(-c2ccccc2)c2ccccc2oc1=O` [Example 250, N-[3,5-Bis(trifluoromethyl)benzyl]-N-methyl-2-oxo-4-phenyl-2H-1-benzopyran-3-carboxamide], the IC50 turned out to be 0.9 nM.
For `COc1ccccc1-c1c(C(=O)N(C)Cc2cc(C(F)(F)F)cc(C(F)(F)F)c2)c(=O)oc2ccc(Cl)cc12` [Example 251, N-[3,5-Bis(trifluoromethyl)benzyl]-6-chloro-4-(2-methoxyphenyl)-N-methyl-2-oxo-2H-1-benzopyran-3-carboxamide], the half-inhibitory concentration (IC50) stood at 60 nM.
Next, `Cc1ccccc1-c1c(C(=O)N(C)Cc2cc(C(F)(F)F)cc(C(F)(F)F)c2)c(=O)oc2ccccc12` [Example 254, N-[3,5-Bis(trifluoromethyl)benzyl]-N-methyl-4-(2-methylphenyl)-2-oxo-2H-1-benzopyran-3-carboxamide]: 0.36 nM; `COc1ccccc1-c1c(C(=O)N(C)Cc2cc(C(F)(F)F)cc(C(F)(F)F)c2)c(=O)oc2ccccc12` [Example 255, N-[3,5-Bis(trifluoromethyl)benzyl]-4-(2-methoxyphenyl)-N-methyl-2-oxo-2H-1-benzopyran-3-carboxamide]: 1.3 nM; `CN(Cc1cc(C(F)(F)F)cc(C(F)(F)F)c1)C(=O)c1c(-c2ccccc2C(F)(F)F)c2ccccc2oc1=O` [Example 256, N-[3,5-Bis(trifluoromethyl)benzyl]-N-methyl-2-oxo-4-(2trifluoromethylphenyl)-2H-1-benzopyran-3-carboxamide]: 4.4 nM.
Take `CN(Cc1cc(C(F)(F)F)cc(C(F)(F)F)c1)C(=O)c1c(-c2ccccc2)c2ccccc2[nH]c1=O` [Example 258, N-[3,5-Bis(trifluoromethyl)benzyl]-1,2-dihydro-N-methyl-2-oxo-4-phenyl-3-quinolinecarboxamide]: the IC50 was determined as 3.1 nM.
For `CN(Cc1cc(C(F)(F)F)cc(C(F)(F)F)c1)C(=O)c1c(-c2ccccc2)c2ccccc2n(C)c1=O` [Example 260, N-[3,5-Bis(trifluoromethyl)benzyl]-1,2-dihydro-N,1-dimethyl-2-oxo-4-phenyl-3-quinolinecarboxamide], the IC50 stood at 1 nM.
With `Cn1c(=O)c(C(=O)NCc2cc(C(F)(F)F)cc(C(F)(F)F)c2)c(-c2ccccc2Cl)c2ccccc21` [Example 261, N-[3,5-Bis(trifluoromethyl)benzyl]-4-(2-chlorophenyl)-1,2-dihydro-1-methyl-2-oxo-3-quinolinecarboxamide], the half-maximal inhibitory concentration (IC50) is 63 nM.
Compound `CN(Cc1cc(C(F)(F)F)cc(C(F)(F)F)c1)C(=O)c1c(-c2ccccc2Cl)c2ccccc2n(C)c1=O` [Example 262, N-[3,5-Bis(trifluoromethyl)benzyl]-4-(2-chlorophenyl)-1,2-dihydro-N,1-dimethyl-2-oxo-3-quinolinecarboxamide] showed an IC50 of 2 nM.
`Cc1ccc2c(c1)c(-c1ccccc1Cl)c(C(=O)N(C)Cc1cc(C(F)(F)F)cc(C(F)(F)F)c1)c(=O)n2C` [Example 263, N-[3,5-Bis(trifluoromethyl)benzyl]-4-(2-chlorophenyl)-1,2-dihydro-N,1,6-trimethyl-2-oxo-3-quinolinecarboxamide] registered a 50% inhibitory concentration (IC50) of 46 nM.
The value for `CN(Cc1cc(C(F)(F)F)cc(C(F)(F)F)c1)C(=O)c1cnc2ccc(Cl)cc2c1-c1ccccc1` [Example 264, N-[3,5-Bis(trifluoromethyl)benzyl]-6-chloro-N-methyl-4-phenyl-3-quinolinecarboxamide] was 16 nM; that for `CN(Cc1cc(C(F)(F)F)cc(C(F)(F)F)c1)C(=O)c1cnc2ccccc2c1-c1ccccc1` [Example 265, N-[3,5-Bis(trifluoromethyl)benzyl]-N-methyl-4-phenyl-3-quinolinecarboxamide] was 0.52 nM; that for `Cc1nc2ccccc2c(-c2ccccc2)c1C(=O)NCc1cc(C(F)(F)F)cc(C(F)(F)F)c1` [Example 266, N-[3,5-Bis(trifluoromethyl)benzyl]-2-methyl-4-phenyl-3-quinolinecarboxamide] was 8.2 nM.
`Cc1nc2ccccc2c(-c2ccccc2)c1C(=O)N(C)Cc1cc(C(F)(F)F)cc(C(F)(F)F)c1` [Example 267, N-[3,5-Bis(trifluoromethyl)benzyl]-N,2-dimethyl-4-phenyl-3-quinolinecarboxamide] displayed a half-inhibitory concentration (IC50) of 0.68 nM.
As for `CN(Cc1cc(C(F)(F)F)cc(C(F)(F)F)c1)C(=O)c1c(Cl)nc2ccccc2c1-c1ccccc1` [Example 269, N-[3,5-Bis(trifluoromethyl)benzyl]-2-chloro-N-methyl-4-phenyl-3-quinolinecarboxamide], the IC50 was determined as 1.4 nM.
For the compound `COc1nc2ccccc2c(-c2ccccc2)c1C(=O)N(C)Cc1cc(C(F)(F)F)cc(C(F)(F)F)c1` [Example 270, N-[3,5-Bis(trifluoromethyl)benzyl]-2-methoxy-N-methyl-4-phenyl-3-quinolinecarboxamide], the IC50 amounted to 10 nM.
With `CNc1nc2ccccc2c(-c2ccccc2)c1C(=O)N(C)Cc1cc(C(F)(F)F)cc(C(F)(F)F)c1` [Example 271, N-[3,5-Bis(trifluoromethyl)benzyl]-N-methyl-2-methylamino-4-phenyl-3-quinolinecarboxamide], the half-maximal inhibitory concentration (IC50) is 1.9 nM.

Source of the values: patent US5482967A, “Condensed heterocyclic compounds, their production and use” (Takeda Chemical Industries, Ltd., priority 1992, dated 1996).
